Like-named read-outs stand apart in the source and are kept apart here. One block for each compound: values may come before it.
Columns and labels:
human recombinant BACE1 = human recombinant BACE1 (Homo sapiens (Human), UniProt P56817); test: In vitro enzymatic BACE1 FRET assay; assay type: biochemical; settings: BACE1 FRET enzyme assay; read-out: IC50 IP (μM) BACE1 enzyme
Protocol: (§1) These recombinant proteins were further purified using Ni-NTA affinity chromatography (Qiagen). […] This assay is effectively started by the addition of FRET substrate (50 nM) and the combination is incubated for one hour. The FRET assay is terminated by addition of Tris buffer, which raises the pH to neutrality, and the fluorescence is determined. The FRET substrate is a peptide with commercially available fluorophore and quencher, on opposite sides of the BACE cleavage site. Proteolytic cleavage of the FRET substrate releases quenching of fluorescence (excitation 488 nm and emission 590 nm).

Recombinant Cat D = Recombinant Cat D (Homo sapiens (Human), UniProt P07339); test: In vitro enzymatic Cathepsin D (Cat D) FRET assay; assay type: biochemical
Protocol: In Vitro Enzymatic Cathepsin D (Cat D) FRET (Fluorescence Resonance Energy Transfer) Assay
Recombinant Cat D was expressed in CHO cells. The assay buffer for CathepsinD is 0.05 M citrate pH 3.5, 10% DMSO final, 5 mM CHAPS. […] The assays are effectively started by the addition of different FRET substrates (20 nM for Cat D) and the combination is incubated for one hour. The FRET assay is terminated with by addition of Tris buffer, which raises the pH to neutrality, and the fluorescence is determined. The FRET substrate is a peptide with commercially available fluorophore and quencher, on opposite sides of the BACE cleavage site. The Cat D substrate peptide sequence is based on sequence #1 of Table 1 from Gulnik et al. FEBS Letters v413 p 379-384 1997. Proteolytic cleavage of the FRET substrate releases quenching of fluorescence (Cat D excitation 500 nm and emission 580 nm).

human recombinant BACE2 = human recombinant BACE2 (Homo sapiens (Human), UniProt Q9Y5Z0); test: In vitro enzymatic BACE2 FRET assay; assay type: biochemical; settings: BACE2 FRET enzyme assay; read-out: IC50 IP (μM) BACE2 enzyme
Protocol: as §1

[1] = tested on: Aβ40 in conditioned medium of cells stably expressing Amyloid Precursor Protein (APP); test: In vitro BACE-1 cell-based assay (Aβ40 sandwich ELISA); settings: BACE1 cell-based assay; read-out: IC50 IP (μM) BACE1 cell
Protocol: In Vitro BACE-1 Cell-Based Assay
The cell-based assay measures inhibition or reduction of Aβ40 in conditioned medium of test compound treated cells expressing amyloid precursor protein. Cells stably expressing Amyloid Precursor Protein (APP) were plated at a density of 40K cells/well in 96 well plates (Costar). The cells were cultivated for 24 hours at 37° C. and 5% CO2 in DMEM supplemented with 10% FBS. The test compounds were then added to cells in 10-point dose response concentrations with the starting concentration being either 100 μM or 10 μM. The compounds were diluted from stock solutions in DMSO and the final DMSO concentration of the test compounds on cells was 0.1%. After 24 h of incubation with the test compounds the supernatant conditioned media was collected and the Aβ40 levels were determined using a sandwich ELISA. The IC50 of the compound was calculated from the percent of control or percent inhibition of Aβ40 as a function of the concentration of the test compound.
The sandwich ELISA to detect Aβ40 was performed in 96 well microtiter plates, which were pre-treated with goat anti-rabbit IgG (Pierce). The capture and detecting antibody pair that were used to detect Aβ40 from cell supernatants were affinity purified pAb40 (Biosource) and biotinylated 6E10 (Signet Labs Inc.), respectively. The optimal concentration for the pAb40 antibody was 3 μg/ml in Superblock/TBS (Pierce) that was supplemented with 0.05% Tween 20 (Sigma). […] Cellular supernatants were incubated with the capture antibody for 3 h at 4° C., followed by 3 wash steps in TBS-tween (0.05%). The detecting antibody incubation was for 2 h at 4° C., again followed by the wash steps as described previously. The final readout of the ELISA is Time-Resolved Fluorescence (counts per minute) using Delfia reagents Streptavidin-Europium and Enhancement solutions (Perkin Elmer) and the Victor 2 multilabel counter (Perkin Elmer).

[2] = Cathepsin D FRET enzyme assay, read-out: IC50 IP (μM) CatD

Chain of Recombinant Cat D (P07339 65-412): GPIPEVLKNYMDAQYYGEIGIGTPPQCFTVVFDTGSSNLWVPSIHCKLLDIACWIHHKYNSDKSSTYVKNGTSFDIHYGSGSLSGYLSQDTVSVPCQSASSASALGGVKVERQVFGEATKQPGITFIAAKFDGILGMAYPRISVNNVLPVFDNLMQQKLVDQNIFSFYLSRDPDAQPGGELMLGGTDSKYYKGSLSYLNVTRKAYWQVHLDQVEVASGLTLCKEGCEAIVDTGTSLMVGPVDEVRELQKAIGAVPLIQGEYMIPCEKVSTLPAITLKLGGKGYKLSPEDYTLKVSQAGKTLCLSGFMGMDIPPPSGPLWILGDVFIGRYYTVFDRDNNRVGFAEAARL
Chain of human recombinant BACE2 (Q9Y5Z0 63-518): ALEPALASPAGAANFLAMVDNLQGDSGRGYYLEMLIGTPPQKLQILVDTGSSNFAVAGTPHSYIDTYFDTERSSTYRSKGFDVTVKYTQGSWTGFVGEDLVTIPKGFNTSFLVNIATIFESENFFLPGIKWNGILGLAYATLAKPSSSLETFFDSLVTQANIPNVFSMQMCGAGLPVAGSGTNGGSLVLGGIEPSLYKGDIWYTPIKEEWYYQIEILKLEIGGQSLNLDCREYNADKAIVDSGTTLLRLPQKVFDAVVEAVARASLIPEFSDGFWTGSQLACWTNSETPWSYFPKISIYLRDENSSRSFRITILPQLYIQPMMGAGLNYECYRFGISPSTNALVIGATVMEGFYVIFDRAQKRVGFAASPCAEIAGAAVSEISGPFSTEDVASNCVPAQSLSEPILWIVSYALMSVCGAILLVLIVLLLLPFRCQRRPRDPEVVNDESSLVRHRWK
Chain of human recombinant BACE1 (P56817 46-501): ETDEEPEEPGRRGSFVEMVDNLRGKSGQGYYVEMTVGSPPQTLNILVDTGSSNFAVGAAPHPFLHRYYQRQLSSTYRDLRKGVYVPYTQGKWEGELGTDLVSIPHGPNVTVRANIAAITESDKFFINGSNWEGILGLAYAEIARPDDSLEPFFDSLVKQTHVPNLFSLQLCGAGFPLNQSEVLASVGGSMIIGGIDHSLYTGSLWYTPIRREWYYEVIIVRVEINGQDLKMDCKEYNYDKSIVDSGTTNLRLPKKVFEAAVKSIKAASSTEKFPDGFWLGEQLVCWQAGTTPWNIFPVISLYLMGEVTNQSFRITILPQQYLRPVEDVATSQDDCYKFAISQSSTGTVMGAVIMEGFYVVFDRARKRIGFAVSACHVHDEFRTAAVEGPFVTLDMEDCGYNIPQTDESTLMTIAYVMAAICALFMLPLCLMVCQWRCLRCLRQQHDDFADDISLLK

SMILES: C[C@]1(c2cc(Nc3ncnc4cc(Cl)cnc34)cc(F)c2F)N=C(N)S[C@H]2C[C@H]21 [Example 34, N-(3-((1S,5S,6S)-3-amino-5-methyl-2-thia-4-azabicyclo[4.1.0]hept-3-en-5-yl)-4,5-difluorophenyl)-7-chloropyrido[3,2-d]pyrimidin-4-amine]
IC50 (human recombinant BACE1): 0.0198 µM | IC50 (Recombinant Cat D; [2]): 295 µM | IC50 (human recombinant BACE2): 0.0136 µM | IC50 [1]: 0.0317 µM

SMILES: COC[C@]12C[C@H]1[C@@](CF)(c1cc(Nc3nccc4cc(C#N)cnc34)cc(F)c1F)N=C(N)S2 [Example 47, 8-((3-((1S,5S,6S)-3-amino-5-(fluoromethyl)-1-(methoxymethyl)-2-thia-4-azabicyclo[4.1.0]hept-3-en-5-yl)-4,5-difluorophenyl)amino)-1,7-naphthyridine-3-carbonitrile]
IC50 (human recombinant BACE1): 0.00318 µM | IC50 (Recombinant Cat D; [2]): > 400 µM | IC50 (human recombinant BACE2): 0.00187 µM | IC50 [1]: 0.0162 µM

SMILES: N#Cc1cnc2c(Nc3cc(F)c(F)c([C@@]4(CF)N=C(N)S[C@@]5(CO)C[C@H]54)c3)nccc2c1 [Example 48, 8-((3-((1S,5S,6S)-3-amino-5-(fluoromethyl)-1-(hydroxymethyl)-2-thia-4-azabicyclo[4.1.0]hept-3-en-5-yl)-4,5-fluorophenyl)amino)-7-naphthyridine-3-carbonitrile]
IC50 (human recombinant BACE1): 0.00357 µM | IC50 (Recombinant Cat D; [2]): > 400 µM | IC50 (human recombinant BACE2): 0.00323 µM | IC50 [1]: 0.0149 µM

SMILES: C[C@]1(c2cc(Nc3ncnc4cc(C#N)cnc34)cc(F)c2F)N=C(N)S[C@@]2(CO)C[C@H]21 [Example 55, 4-((3-((1S,5S,6S)-3-amino-1-(hydroxymethyl)-5-methyl-2-thia-4-azabicyclo[4.1.0]hept-3-en-5-yl)-4,5-difluorophenyl)amino)pyrido[3,2-d]pyrimidine-7-carbonitrile]
IC50 (human recombinant BACE1): 0.00399 µM | IC50 (Recombinant Cat D; [2]): 227 µM | IC50 (human recombinant BACE2): 0.014 µM | IC50 [1]: 0.00457 µM

SMILES: N#Cc1cnc2c(Nc3cc(F)c(F)c([C@@]4(CF)N=C(N)S[C@]5(CO)C[C@@H]54)c3)nccc2c1 [Example 57, 8-((3-((1R,5S,6R)-3-amino-5-(fluoromethyl)-1-(hydroxymethyl)-2-thia-4-azabicyclo[4.1.0]hept-3-en-5-yl)-4,5-difluorophenyl)amino)-1,7-naphthyridine-3-carbonitrile]
IC50 (human recombinant BACE1): 0.00563 µM | IC50 (Recombinant Cat D; [2]): 29.5 µM | IC50 (human recombinant BACE2): 0.0235 µM | IC50 [1]: 0.0225 µM

SMILES: COc1cnc2c(Nc3cc(F)c(F)c([C@@]4(C)N=C(N)S[C@@]5(CO)C[C@H]54)c3)ncnc2c1 [Example 58, ((1S,5S,6S)-3-amino-5-(2,3-difluoro-5-((7-methoxypyrido[3,2-d]pyrimidin-4-yl)amino)phenyl)-5-methyl-2-thia-4-azabicyclo[4.1.0]hept-3-en-1-yl)methanol]
IC50 (human recombinant BACE1): 0.00397 µM | IC50 (Recombinant Cat D; [2]): 975 µM | IC50 (human recombinant BACE2): 0.0308 µM | IC50 [1]: 0.00306 µM

SMILES: C[C@]1(c2cc(Nc3nccc4cc(C#N)cnc34)cc(F)c2F)N=C(N)S[C@@]2(CF)C[C@H]21 [Example 60, 8-((3-((1S,5S,6S)-3-amino-1-(fluoromethyl)-5-methyl-2-thia-4-azabicyclo[4.1.0]hept-3-en-5-yl)-4,5-difluorophenyl)amino)-1,7-naphthyridine-3-carbonitrile]
IC50 (human recombinant BACE1): 0.00135 µM | IC50 (Recombinant Cat D; [2]): 204 µM | IC50 (human recombinant BACE2): 0.00174 µM | IC50 [1]: 0.00767 µM

More lines, now with the values ahead:

IC50 (human recombinant BACE1): 0.00332 µM | IC50 (Recombinant Cat D; [2]): > 400 µM | IC50 (human recombinant BACE2): 0.00161 µM | IC50 [1]: 0.0014 µM
SMILES: NC1=N[C@](CF)(c2cc(NC(=O)c3ccc(Cl)cn3)ccc2F)[C@@H]2C[C@]2(CO)S1 [Example 37, N-(3-((1S,5S,6S)-3-amino-5-(fluoromethyl)-1-(hydroxymethyl)-2-thia-4-azabicyclo[4.1.0]hept-3-en-5-yl)-4-fluorophenyl)-5-chloropicolinamide]

IC50 (human recombinant BACE1): 0.00553 µM | IC50 (Recombinant Cat D; [2]): 2810 µM | IC50 (human recombinant BACE2): 0.00121 µM | IC50 [1]: 0.0065 µM
SMILES: COC[C@]12C[C@H]1[C@@](CF)(c1cc(NC(=O)c3ccc(Cl)cn3)ccc1F)N=C(N)S2 [Example 40, N-(3-((1S,5S,6S)-3-amino-5-(fluoromethyl)-1-(methoxymethyl)-2-thia-4-azabicyclo[4.1.0]hept-3-en-5-yl)-4-fluorophenyl)-5-chloro-2-pyridinecarboxamide]

IC50 (human recombinant BACE1): 0.00227 µM | IC50 (Recombinant Cat D; [2]): > 400 µM | IC50 (human recombinant BACE2): < 0.00203 µM | IC50 [1]: 0.00596 µM
SMILES: NC1=N[C@](CF)(c2cc(NC(=O)c3ccc(Cl)cn3)ccc2F)[C@@H]2C[C@]2(CF)S1 [Example 41, N-(3-((1S,5S,6S)-3-amino-1,5-bis(fluoromethyl)-2-thia-4-azabicyclo[4.1.0]hept-3-en-5-yl)-4-fluorophenyl)-5-chloro-2-pyridinecarboxamide]

IC50 (human recombinant BACE1): 0.00601 µM | IC50 (Recombinant Cat D; [2]): 95.6 µM | IC50 (human recombinant BACE2): 0.0039 µM | IC50 [1]: 0.00576 µM
SMILES: NC1=N[C@](CF)(c2cc(NC(=O)c3ccc(Cl)cn3)ccc2F)[C@H]2C[C@@]2(CO)S1 [Example 42, N-(3-((1R,5S,6R)-3-amino-5-(fluoromethyl)-1-(hydroxymethyl)-2-thia-4-azabicyclo[4.1.0]hept-3-en-5-yl)-4-fluorophenyl)-5-chloro-2-pyridinecarboxamide]

IC50 (human recombinant BACE1): 0.00235 µM | IC50 (Recombinant Cat D; [2]): 755 µM | IC50 (Recombinant Cat D; first procedure (FRET), read-out: Cat D IC50): > 400 µM | IC50 (human recombinant BACE2): 0.00163 µM | IC50 [1]: 0.00995 µM
SMILES: COC[C@]12C[C@H]1[C@@](CF)(c1cc(NC(=O)c3ccc(Cl)cn3)cc(F)c1F)N=C(N)S2 [Example 43, N-(3-((1S,5S,6S)-3-amino-5-(fluoromethyl)-1-(methoxymethyl)-2-thia-4-azabicyclo[4.1.0]hept-3-en-5-yl)-4,5-difluorophenyl)-5-chloro-2-pyridinecarboxamide]

IC50 (human recombinant BACE1): 0.00255 µM | IC50 (Recombinant Cat D; [2]): > 400 µM | IC50 (human recombinant BACE2): 0.00147 µM | IC50 [1]: 0.00215 µM
SMILES: Cc1cc(C#N)cnc1C(=O)Nc1ccc(F)c([C@@]2(CF)N=C(N)S[C@@]3(CO)C[C@H]32)c1 [Example 44, N-(3-((1S,5S,6S)-3-amino-5-(fluoromethyl)-1-(hydroxymethyl)-2-thia-4-azabicyclo[4.1.0]hept-3-en-5-yl)-4-fluorophenyl)-5-cyano-3-methyl-2-pyridinecarboxamide]

IC50 (human recombinant BACE1): 0.00225 µM | IC50 (Recombinant Cat D; [2]): > 133 µM | IC50 (human recombinant BACE2): 0.00286 µM | IC50 [1]: 0.00505 µM
SMILES: N#Cc1cnc2c(Nc3ccc(F)c([C@@]4(CF)N=C(N)S[C@@]5(CO)C[C@H]54)c3)nccc2c1 [Example 50, 8-((3-((1S,5S,6S)-3-amino-5-(fluoromethyl)-1-(hydroxymethyl)-2-thia-4-azabicyclo[4.1.0]hept-3-en-5-yl)-4-fluorophenyl)amino)-1,7-naphthyridine-3-carbonitrile]

IC50 (human recombinant BACE1): 0.00045 µM | IC50 (Recombinant Cat D; [2]): 349 µM | IC50 (human recombinant BACE2): 0.0156 µM | IC50 [1]: 0.00045 µM
SMILES: C#CCOc1cnc(C(=O)Nc2ccc(F)c([C@@]3(CF)N=C(N)S[C@@]4(CO)C[C@H]43)c2)cn1 [Example 53, N-(3-((1S,5S,6S)-3-amino-5-(fluoromethyl)-1-(hydroxymethyl)-2-thia-4-azabicyclo[4.1.0]hept-3-en-5-yl)-4-fluorophenyl)-5-(2-propyn-1-yloxy)-2-pyrazinecarboxamide]

IC50 (human recombinant BACE1): 0.00114 µM | IC50 (Recombinant Cat D; [2]): > 400 µM | IC50 (human recombinant BACE2): < 0.00203 µM | IC50 [1]: 0.0229 µM
SMILES: NC1=N[C@](CF)(c2cc(NC(=O)c3ccc(Cl)cn3)cc(F)c2F)[C@@H]2C[C@]2(CF)S1 [Example 59, N-(3-((1S,5S,6S)-3-amino-1,5-bis(fluoromethyl)-2-thia-4-azabicyclo[4.1.0]hept-3-en-5-yl)-4,5-difluorophenyl)-5-chloro-2-pyridinecarboxamide]
